{
  "source": "patent US20260000708A1",
  "about": "“Copper Hydrogel Beads as a Diet Supplement” (Texas Tech University System, priority 2021, published 2026)",
  "tested_on": "Salmonella",
  "assay": "Time-release formulation compared to copper sulfate alone against Salmonella cells in vitro",
  "assay_type": "cell-based",
  "conditions": "after application (FIG. 3)",
  "data": [
    {"smiles": "O=S(=O)([O-])[O-].[Cu+2]", "note": "[copper sulfate]", "values": [
      {"measurement": "Duration of effectiveness against Salmonella", "result": "only effective for a short time"}
    ]}
  ]
}
